The target of one assay is T1, human GcgR (Homo sapiens, UniProt P47871).
T1 construct: expressed in transfected cells; crude membranes
Nature of the assay: [125I]-Glucagon binding, SPA with WGA beads, 0.1% bacitracin. As to conditions: geometric mean, read-out: hGcgR Ki. The method, then: (§1) Stably transfected cell lines are prepared by subcloning receptor cDNA into a pcDNA3 expression plasmid and transfected into human embryonic kidney (HEK) 293 (hGcgR and hGLP-1R) or Chinese Hamster Ovary (CHO) (hGIPR) cells followed by selection with Geneticin (hGLP-1R and hGIPR) or hygromycin B (hGcgR).
(§2) Two methods are used for the preparation of crude cell membranes.
(§3) Method 1: Frozen cell pellets are lysed on ice in hypotonic buffer containing 50 mM Tris HCl, pH 7.5, and Roche Complete™ Protease Inhibitors with EDTA. The cell suspension is disrupted using a glass Potter-Elvehjem homogenizer fitted with a Teflon® pestle for 25 strokes. The homogenate is centrifuged at 4° C. at 1100× g for 10 minutes. The supernatant is collected and stored on ice while the pellets are resuspended in homogenization buffer and rehomogenized as described above. The homogenate is centrifuged at 1100× g for 10 minutes. The second supernatant is combined with the first supernatant and centrifuged at 35000× g for 1 hour at 4° C. The resulting membrane pellet is resuspended in homogenization buffer containing protease inhibitors at approximately 1 to 3 mg/mL, quick frozen in liquid nitrogen and stored as aliquots in a −80° C. freezer until use.
(§4) Method 2: Frozen cell pellets are lysed on ice in hypotonic buffer containing 50 mM Tris HCl, pH 7.5, 1 mM MgCl2, Roche Complete™ EDTA-free Protease Inhibitors and 25 units/mL DNAse I (Invitrogen). The cell suspension is disrupted using a glass Potter-Elvehjem homogenizer fitted with a Teflon® pestle for 20 to 25 strokes. The homogenate is centrifuged at 4° C. at 1800× g for 15 minutes. The supernatant is collected and stored on ice while the pellets are resuspended in homogenization buffer (without DNAse I) and rehomogenized as described above. The homogenate is centrifuged at 1800× g for 15 minutes. The second supernatant is combined with the first supernatant and centrifuged an additional time at 1800× g for 15 minutes. The overall supernatant is then centrifuged at 25000× g for 30 minutes at 4° C. The resulting membrane pellet is resuspended in homogenization buffer (without DNAse I) containing protease inhibitors at approximately 1 to 3 mg/mL and stored as aliquots in a −80° C. freezer until use.
The human Geg receptor binding assays are performed using a Scintillation Proximity Assay (SPA) format with wheat germ agglutinin (WGA) beads (Perkin Elmer). The binding buffer contains 25 mM 4-(2-hydroxyethyl)-1-piperazineethanesulfonic acid (HEPES), pH 7.4, 2.5 mM CaCl2), 1 mM MgCl2, 0.1% (w/v) bacitracin (Research Products), 0.003% (w/v) Polyoxyethylenesorbitan monolaurate (TWEEN®-20), and Roche Complete™ Protease Inhibitors without EDTA. Peptides and Gcg are thawed and 3-fold serially diluted in 100% DMSO (10 point concentration response curves). Next, 5 μL serially diluted compound or DMSO is transferred into Corning® 3632 clear bottom assay plates containing 45 μL assay binding buffer or unlabeled Gcg control (non-specific binding or NSB, at 1 μM final). […] Plates are sealed and mixed on a plate shaker (setting 6) for 1 minute and read with a PerkinElmer Trilux MicroBeta® scintillation counter after 12 hours of incubation/settling time at room temperature.
(§5) Data are analyzed using four-parameter (curve maximum, curve minimum, IC50, Hill slope) nonlinear regression routines (Genedata Screener, version 12.0.4, Genedata AG, Basal, Switzerland). […] Values for Ki are reported as the geometric mean, with error expressed as the standard error of the mean (SEM) and n is equal to the number of independent replicates (determined in assays performed on different days). […] SEM is only calculated when […] or greater. Means are expressed as geometric means with the standard error of the mean (SEM) and the number of replicates (n) indicated in parentheses.

Another assay has as its target T2, human GIPR (Homo sapiens, UniProt P48546).
T2 construct: expressed in transfected cells; crude membranes
T2 sequence (P48546 22-466): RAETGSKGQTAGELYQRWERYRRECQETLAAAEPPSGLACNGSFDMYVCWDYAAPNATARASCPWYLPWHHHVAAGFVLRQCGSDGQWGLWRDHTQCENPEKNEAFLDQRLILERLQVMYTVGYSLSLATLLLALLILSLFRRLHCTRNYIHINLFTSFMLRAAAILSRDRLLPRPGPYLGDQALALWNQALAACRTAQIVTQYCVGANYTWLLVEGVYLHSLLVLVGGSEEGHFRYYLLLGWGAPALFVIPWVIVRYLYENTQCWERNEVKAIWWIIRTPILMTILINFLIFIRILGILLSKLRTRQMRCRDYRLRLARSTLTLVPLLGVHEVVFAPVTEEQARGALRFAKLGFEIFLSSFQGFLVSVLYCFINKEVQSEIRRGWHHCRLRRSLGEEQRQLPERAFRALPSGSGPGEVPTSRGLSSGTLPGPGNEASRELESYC
As to the kind of experiment: [125I]-GIP binding, SPA with WGA beads, 0.1% bacitracin. Particulars: geometric mean, read-out: hGIPR Ki. Here is the method:
as §1, §2, §3, §4
The binding buffer contains 25 mM HEPES, pH 7.4, 2.5 mM CaCl2), 1 mM MgCl2, 0.1% (w/v) bacitracin, 0.003% (w/v) TWEEN®-20, and Roche Complete™ Protease Inhibitors without EDTA. […] Plates are sealed and mixed on a plate shaker (setting 6) for 1 minute and read with a PerkinElmer Trilux MicroBeta® scintillation counter after 2.5 to 12 hours of incubation/settling time at room temperature.
as §5

The target in a further assay is T3, human GLP-1R (Homo sapiens, UniProt P43220).
T3 construct: expressed in transfected cells; crude membranes
T3 sequence (P43220 24-463): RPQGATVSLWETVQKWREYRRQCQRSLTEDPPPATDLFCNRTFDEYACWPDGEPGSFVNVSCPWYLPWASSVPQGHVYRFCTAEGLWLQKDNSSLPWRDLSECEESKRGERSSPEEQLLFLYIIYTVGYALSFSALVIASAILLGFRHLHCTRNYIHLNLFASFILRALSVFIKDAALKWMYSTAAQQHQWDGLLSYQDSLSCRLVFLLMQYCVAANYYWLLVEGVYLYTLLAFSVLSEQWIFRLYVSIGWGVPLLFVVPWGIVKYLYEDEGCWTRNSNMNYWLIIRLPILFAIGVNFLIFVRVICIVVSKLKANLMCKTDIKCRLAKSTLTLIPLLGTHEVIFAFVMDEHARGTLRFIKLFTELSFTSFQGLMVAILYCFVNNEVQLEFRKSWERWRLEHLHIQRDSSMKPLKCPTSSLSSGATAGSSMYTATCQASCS
As to the kind of experiment: [125I]-GLP-1 binding, SPA with WGA beads, 0.1% bacitracin. Particulars: geometric mean, read-out: hGLP1R Ki. Here is the method:
as §1, §2, §3, §4
The binding buffer contains 25 mM HEPES, pH 7.4, 2.5 mM CaCl2), 1 mM MgCl2, 0.1% (w/v) bacitracin, 0.003% (w/v) TWEEN®-20, and Roche Complete™ Protease Inhibitors without EDTA.
as §5

*1 amine or outer side, *2 acyl side, *3 side chain or, on linkers, in order; H or OH if unused. Where a SMILES comes first, the peptide text is derived from it. Side-chain parts run from the residue outwards. [ ]: non-standard residue; d: D form. The star is where a group is joined. C20 diacid = O=C(O)CCCCCCCCCCCCCCCCCCC(=O)*; C18 diacid = O=C(O)CCCCCCCCCCCCCCCCC(=O)*; γGlu = O=C(O)[C@H](CCC(=O)[*:2])N[*:1]; 4Pal = N[C@@H](Cc1ccncc1)C(=O)O; αMeL = CC(C)C[C@](C)(N)C(=O)O; Orn = NCCC[C@H](N)C(=O)O; AEEA = NCCOCCOCC(=O)O; Aib = CC(C)(N)C(=O)O

T1 sequence (P47871 26-477): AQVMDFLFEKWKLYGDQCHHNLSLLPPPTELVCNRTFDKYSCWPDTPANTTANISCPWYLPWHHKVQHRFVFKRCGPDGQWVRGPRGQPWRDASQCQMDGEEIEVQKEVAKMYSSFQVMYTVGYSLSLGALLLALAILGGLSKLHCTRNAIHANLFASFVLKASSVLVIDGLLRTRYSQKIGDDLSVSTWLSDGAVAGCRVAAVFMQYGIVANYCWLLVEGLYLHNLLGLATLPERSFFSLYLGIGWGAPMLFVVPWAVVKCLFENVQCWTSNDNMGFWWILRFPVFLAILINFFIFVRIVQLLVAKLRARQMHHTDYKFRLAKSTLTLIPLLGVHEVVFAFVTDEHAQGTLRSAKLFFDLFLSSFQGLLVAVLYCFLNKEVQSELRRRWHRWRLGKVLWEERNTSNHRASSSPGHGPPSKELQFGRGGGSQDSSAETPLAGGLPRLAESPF

In general, Ki refers to a dissociation constant, usually derived from enzyme kinetics or from competition with a known ligand. Consider `CC[C@H](C)[C@H](NC(=O)[C@H](CO)NC(=O)[C@H](Cc1ccc(O)cc1)NC(=O)[C@H](CC(=O)O)NC(=O)[C@H](CO)NC(=O)[C@@H](NC(=O)[C@H](Cc1ccccc1)NC(=O)[C@@H](NC(=O)CNC(=O)[C@H](CCC(=O)O)NC(=O)[C@@H](C)NC(=O)[C@@H](N)Cc1ccc(O)cc1)[C@@H](C)O)[C@@H](C)CC)C(=O)N[C@@H](CC(C)C)C(=O)N[C@@H](CC(C)C)C(=O)N[C@@H](CC(=O)O)C(=O)N[C@@H](CCCCN)C(=O)N[C@@H](CCCCNC(=O)COCCOCCNC(=O)COCCOCCNC(=O)CC[C@H](NC(=O)CCCCCCCCCCCCCCCCC(=O)O)C(=O)O)C(=O)N[C@@H](C)C(=O)N[C@@H](CCC(N)=O)C(=O)NC(C)(C)C(=O)N[C@@H](CCC(=O)O)C(=O)N[C@@H](Cc1ccccc1)C(=O)N[C@H](C(=O)N[C@@H](CC(N)=O)C(=O)N[C@@H](Cc1c[nH]c2ccccc12)C(=O)N[C@@H](CC(C)C)C(=O)N[C@@H](CC(C)C)C(=O)N[C@@H](CCC(=O)O)C(=O)NCC(=O)NCC(=O)N1CCC[C@H]1C(=O)N[C@@H](CO)C(=O)N[C@@H](CO)C(=O)NCC(=O)N[C@@H](C)C(=O)N1CCC[C@H]1C(=O)N1CCC[C@H]1C(=O)N1CCC[C@H]1C(=O)N[C@@H](CO)C(N)=O)C(C)C` [Example 28] (H-Y[dA]EGTFISDYSILLDKK([AEEA-AEEA-γGlu-C18 diacid])AQ[Aib]EFVNWLLEGGPSSGAPPPS-NH2), for which the results for the Ki on human GcgR, at human GIPR and at human GLP-1R were 86.8 nM, 0.0732 nM and 6.46 nM, respectively.

Consider `CC[C@H](C)[C@H](NC(=O)[C@H](CO)NC(=O)[C@H](Cc1ccc(O)cc1)NC(=O)[C@H](CC(=O)O)NC(=O)[C@H](CO)NC(=O)[C@@H](NC(=O)[C@H](Cc1ccccc1)NC(=O)[C@@H](NC(=O)CNC(=O)[C@H](CCC(=O)O)NC(=O)[C@@H](C)NC(=O)[C@@H](N)Cc1ccc(O)cc1)[C@@H](C)O)[C@@H](C)CC)C(=O)N[C@@H](CC(C)C)C(=O)N[C@@H](CC(C)C)C(=O)N[C@@H](CC(=O)O)C(=O)N[C@@H](CCCCN)C(=O)N[C@@H](CCCCNC(=O)COCCOCCNC(=O)COCCOCCNC(=O)CC[C@H](NC(=O)CCCCCCCCCCCCCCCCC(=O)O)C(=O)O)C(=O)N[C@@H](C)C(=O)N[C@@H](CCC(N)=O)C(=O)NC(C)(C)C(=O)N[C@@H](CC(=O)O)C(=O)N[C@@H](Cc1ccccc1)C(=O)N[C@H](C(=O)N[C@@H](CCC(=O)O)C(=O)N[C@@H](Cc1c[nH]c2ccccc12)C(=O)N[C@@H](CC(C)C)C(=O)N[C@@H](CC(C)C)C(=O)N[C@@H](C)C(=O)N[C@@H](CCC(N)=O)C(=O)NCC(=O)N1CCC[C@H]1C(=O)N[C@@H](CO)C(=O)N[C@@H](CO)C(=O)NCC(=O)N[C@@H](C)C(=O)N1CCC[C@H]1C(=O)N1CCC[C@H]1C(=O)N1CCC[C@H]1C(=O)N[C@@H](CO)C(N)=O)C(C)C` [Example 16] (H-Y[dA]EGTFISDYSILLDKK([AEEA-AEEA-γGlu-C18 diacid])AQ[Aib]DFVEWLLAQGPSSGAPPPS-NH2), for which the inhibition constant (Ki) at human GcgR stood at 549 nM; on human GIPR, 0.0438 nM; at human GLP-1R it was 99.2 nM.

On to `CC[C@H](C)[C@H](NC(=O)[C@H](CCCN)NC(=O)[C@H](CC(=O)O)NC(=O)[C@H](CC(C)C)NC(=O)[C@](C)(CC(C)C)NC(=O)[C@@H](NC(=O)[C@H](CO)NC(=O)[C@H](Cc1ccc(O)cc1)NC(=O)[C@H](CC(=O)O)NC(=O)[C@H](CO)NC(=O)[C@@H](NC(=O)[C@H](Cc1ccccc1)NC(=O)[C@@H](NC(=O)CNC(=O)[C@H](CCC(=O)O)NC(=O)C(C)(C)NC(=O)[C@@H](N)Cc1ccc(O)cc1)[C@@H](C)O)[C@@H](C)CC)[C@@H](C)CC)C(=O)N[C@@H](Cc1c[nH]cn1)C(=O)N[C@@H](CCC(N)=O)C(=O)NC(C)(C)C(=O)N[C@@H](CCC(=O)O)C(=O)N[C@@H](Cc1ccccc1)C(=O)N[C@H](C(=O)N[C@@H](CCC(=O)O)C(=O)N[C@@H](Cc1ccc(O)cc1)C(=O)N[C@@H](CCCCNC(=O)COCCOCCNC(=O)COCCOCCNC(=O)CC[C@H](NC(=O)CCCCCCCCCCCCCCCCCCC(=O)O)C(=O)O)C(=O)N[C@@H](CC(C)C)C(=O)N[C@@H](CCC(=O)O)C(=O)NCC(=O)NCC(=O)N1CCC[C@H]1C(=O)N[C@@H](CO)C(=O)N[C@@H](CO)C(=O)NCC(=O)N[C@@H](C)C(=O)N1CCC[C@H]1C(=O)N1CCC[C@H]1C(=O)N1CCC[C@H]1C(=O)N[C@@H](CO)C(N)=O)C(C)C` [Example 107] (H-Y[Aib]EGTFISDYSI[αMeL]LD[Orn]IHQ[Aib]EFVEYK([AEEA-AEEA-γGlu-C20 diacid])LEGGPSSGAPPPS-NH2), for which the Ki at human GcgR was 347 nM; at human GIPR, 0.0722 nM; at human GLP-1R it was above 911 nM.

As for `CC[C@H](C)[C@H](NC(=O)[C@H](CCCN)NC(=O)[C@H](CC(=O)O)NC(=O)[C@H](CC(C)C)NC(=O)[C@](C)(CC(C)C)NC(=O)[C@@H](NC(=O)[C@H](CO)NC(=O)[C@H](Cc1ccc(O)cc1)NC(=O)[C@H](CC(=O)O)NC(=O)[C@H](CO)NC(=O)[C@@H](NC(=O)[C@H](Cc1ccccc1)NC(=O)[C@@H](NC(=O)CNC(=O)[C@H](CCC(=O)O)NC(=O)C(C)(C)NC(=O)[C@@H](N)Cc1ccc(O)cc1)[C@@H](C)O)[C@@H](C)CC)[C@@H](C)CC)C(=O)N[C@@H](Cc1c[nH]cn1)C(=O)N[C@@H](CCC(N)=O)C(=O)NC(C)(C)C(=O)N[C@@H](CC(=O)O)C(=O)N[C@@H](Cc1ccccc1)C(=O)N[C@H](C(=O)N[C@@H](CCC(=O)O)C(=O)N[C@@H](Cc1ccncc1)C(=O)N[C@@H](CCCCNC(=O)COCCOCCNC(=O)COCCOCCNC(=O)CC[C@H](NC(=O)CCCCCCCCCCCCCCCCCCC(=O)O)C(=O)O)C(=O)N[C@@H](CC(C)C)C(=O)N[C@@H](CCC(=O)O)C(=O)NCC(=O)NCC(=O)N1CCC[C@H]1C(=O)N[C@@H](CO)C(=O)N[C@@H](CO)C(=O)NCC(=O)N[C@@H](C)C(=O)N1CCC[C@H]1C(=O)N1CCC[C@H]1C(=O)N1CCC[C@H]1C(=O)N[C@@H](CO)C(N)=O)C(C)C` [Example 108] (H-Y[Aib]EGTFISDYSI[αMeL]LD[Orn]IHQ[Aib]DFVE[4Pal]K([AEEA-AEEA-γGlu-C20 diacid])LEGGPSSGAPPPS-NH2), the results for the Ki at human GcgR, at human GIPR and on human GLP-1R were above 960 nM, 0.134 nM and above 910 nM, respectively.

The values are drawn from patent publication US12723063B2, “GIPR-agonist compounds” (Eli Lilly and Company, priority 2019, dated 2026).
